Measured values from the CheMixHub viscosity set.

Assay: xn = mol fraction of the nth substance listed

NN + O
Conditions | viscosity [mPa·s]
293.15 K, 101.3 kPa, x1 = 0.0526 | 1.11
293.15 K, 101.3 kPa, x1 = 0.1045 | 1.26
293.15 K, 101.3 kPa, x1 = 0.1502 | 1.4
293.15 K, 101.3 kPa, x1 = 0.2047 | 1.57
293.15 K, 101.3 kPa, x1 = 0.3013 | 1.8
293.15 K, 101.3 kPa, x1 = 0.3512 | 1.88
293.15 K, 101.3 kPa, x1 = 0.3967 | 1.96
293.15 K, 101.3 kPa, x1 = 0.4526 | 1.92
293.15 K, 101.3 kPa, x1 = 0.4938 | 1.89
293.15 K, 101.3 kPa, x1 = 0.5997 | 1.71
293.15 K, 101.3 kPa, x1 = 0.7032 | 1.51
293.15 K, 101.3 kPa, x1 = 0.8022 | 1.28
293.15 K, 101.3 kPa, x1 = 0.8961 | 1.11
303 K, 101 kPa, x1 = 0.1 | 1.009
303 K, 101 kPa, x1 = 0.2 | 1.181
303 K, 101 kPa, x1 = 0.3 | 1.357
303 K, 101 kPa, x1 = 0.4 | 1.364
303 K, 101 kPa, x1 = 0.55 | 1.43
303 K, 101 kPa, x1 = 0.6 | 1.41
303 K, 101 kPa, x1 = 0.7 | 1.34
303 K, 101 kPa, x1 = 0.8 | 1.21
303 K, 101 kPa, x1 = 0.9 | 1.02
313 K, 101 kPa, x1 = 0.1 | 0.869
313 K, 101 kPa, x1 = 0.2 | 0.989
313 K, 101 kPa, x1 = 0.3 | 1.138
313 K, 101 kPa, x1 = 0.4 | 1.148
313 K, 101 kPa, x1 = 0.55 | 1.19
313 K, 101 kPa, x1 = 0.6 | 1.17
313 K, 101 kPa, x1 = 0.7 | 1.1
313 K, 101 kPa, x1 = 0.8 | 0.98
313 K, 101 kPa, x1 = 0.9 | 0.83

Nc1ccc(S(=O)(=O)[O-])cc1.[Na+] + O
viscosity [mPa·s], 101 kPa
Conditions | x1 = 9e-05 | x1 = 0.00018 | x1 = 0.0009 | x1 = 0.0018 | x1 = 0.00448 | x1 = 0.00893 | x1 = 0.0133 | x1 = 0.0177
298.15 K | 0.899 | 0.9 | 0.915 | 0.93 | 0.984 | 1.076 | 1.174 | 1.281
318.15 K | 0.598 | 0.599 | 0.61 | 0.62 | 0.654 | 0.71 | 0.771 | 0.838

O=C(O)c1ccccc1O + O
viscosity [mPa·s], 100 kPa
Conditions | x1 = 7.22e-05 | x1 = 0.000108 | x1 = 0.000143 | x1 = 0.00018 | x1 = 0.0002158 | x1 = 0.0002516
293.15 K | 1.008 | 1.011 | 1.013 | 1.015 | 1.017 | 1.019
298.15 K | 0.896 | 0.899 | 0.901 | 0.902 | 0.904 | 0.906
303.15 K | 0.803 | 0.806 | 0.807 | 0.809 | 0.81 | 0.812
308.15 K | 0.725 | 0.727 | 0.729 | 0.73 | 0.732 | 0.733
313.15 K | 0.659 | 0.661 | 0.662 | 0.664 | 0.665 | 0.666

O=C(O)c1cccnc1 + O
viscosity [mPa·s]
Conditions | 100 kPa | 101 kPa
298.15 K, x1 = 0.000225 | 0.8934 | 0.8934
298.15 K, x1 = 0.000268 | 0.903 | –
298.15 K, x1 = 0.000452 | 0.8963 | 0.8963
298.15 K, x1 = 0.0005074 | – | 0.8966
298.15 K, x1 = 0.0007821 | – | 0.9016
298.15 K, x1 = 0.000808 | 0.908 | –
298.15 K, x1 = 0.000907 | 0.902 | 0.902
298.15 K, x1 = 0.00135 | 0.913 | –
298.15 K, x1 = 0.0015 | – | 0.893
298.15 K, x1 = 0.00162 | 0.916 | –
303.15 K, x1 = 0.000542 | 0.809 | –
303.15 K, x1 = 0.000808 | 0.812 | –
303.15 K, x1 = 0.00108 | 0.814 | –
308.15 K, x1 = 0.000452 | – | 0.7233
308.15 K, x1 = 0.0005074 | – | 0.7239
308.15 K, x1 = 0.00108 | 0.746 | –
308.15 K, x1 = 0.001153 | – | 0.7288
308.15 K, x1 = 0.001301 | – | 0.7321
308.15 K, x1 = 0.00135 | 0.75 | –
308.15 K, x1 = 0.00136 | 0.732 | 0.732
308.15 K, x1 = 0.001617 | – | 0.7347
308.15 K, x1 = 0.00162 | 0.754 | –
308.15 K, x1 = 0.001957 | – | 0.7385
313.15 K, x1 = 0.000808 | 0.673 | –
313.15 K, x1 = 0.00108 | 0.677 | –
313.15 K, x1 = 0.00135 | 0.681 | –
313.15 K, x1 = 0.00162 | 0.685 | –
318.15 K, x1 = 0.000225 | 0.5976 | 0.5976
318.15 K, x1 = 0.000268 | 0.61 | –
318.15 K, x1 = 0.000542 | 0.614 | –
318.15 K, x1 = 0.0007 | – | 0.584
318.15 K, x1 = 0.0007821 | – | 0.602
318.15 K, x1 = 0.000808 | 0.617 | –
318.15 K, x1 = 0.000907 | 0.6036 | 0.6036
318.15 K, x1 = 0.00108 | 0.62 | –
318.15 K, x1 = 0.001153 | – | 0.6035
318.15 K, x1 = 0.00135 | 0.624 | –
318.15 K, x1 = 0.00136 | 0.608 | 0.608
318.15 K, x1 = 0.0015 | – | 0.587
318.15 K, x1 = 0.001617 | – | 0.6081
318.15 K, x1 = 0.00162 | 0.628 | –
318.15 K, x1 = 0.001957 | – | 0.61
318.15 K, x1 = 0.0022 | – | 0.589
